Laboratory results as given in patent EP0751957B1, “PEPTIDE FRAGMENTS OF MICROBIAL STRESS PROTEINS AND PHARMACEUTICAL COMPOSITION MADE THEREOF FOR THE TREATMENT AND PREVENTION OF INFLAMMATORY DISEASES” (priority 1994, dated 2004).

Experiments:
[1] = tested on: Peptide-specific T cell lines; experiment: T cell proliferation assay, peptide-specific T cell lines from peptide-immunised rats; assay type: cell-based, Lewis rats; conditions: T cell line from 176-190-immunised PLNC; in vitro peptide 10 µg/ml
Method: (§1) T cell proliferation assays: PLNC were cultured in triplicate in 200 µl flat bottom microtitre wells (Costar) at 2 x 10^5 cells per well with or without antigen. In initial experiments PLNC were tested for responsiveness to individual peptides at concentrations of 5 and 20 µg/ml, and Mt, hsp65 and PPD over a range of concentrations. Concanavalin A (2 µg/ml) was used as a positive control for T cell proliferation. Cultures were incubated for 96 h at 37°C in a humidified atmosphere of 5% CO2. Cultures were pulsed for the final 16 h with [^3H] TdR (Amersham, U.K., 1 uCi/well) and TdR uptake measured using a liquid scintillation β counter. Assays using T cell lines were performed as above using 2 x 10^4 line cells per well with irradiated (30 Gy) syngeneic accessory cells (either 3 x 10^5 splenocytes/well or 10^6 thymocytes/well). Results are expressed as mean counts per minute (cpm) of triplicate cultures. In experiments where responses to Ag were low, responses were considered significant if the stimulation index (S.I. = […]) was greater than two and Student's t tests gave p < 0.01.
T cell lines: T cell lines with specificity for mycobacterial hsp65 or peptides were generated by bulk stimulation of either hsp65-PLNC or Mt-PLNC. PLNC were cultured at 5 x 10^6/ml in culture medium supplemented with 2% normal rat serum (NRS) in the presence of 10 µg/ml Ag. After three days viable cells were harvested using a ficoll-isopaque gradient and cultured for a further four days in culture medium + 5% FCS and 5% TCGF (Con A-activated rat spleen supernatant). Seven days after initial stimulation lines were restimulated with irradiated spleen accessory cells and 10 µg/ml Ag in culture medium + NRS. Lines were maintained ir. this seven day restimulation cycle. Short term epitope-specific T cell lines were also generated from rats immunised with synthetic peptides. Peptide-PLNC were cultured as above in the presence of 10 µg/ml peptide.
Bulk stimulation generated T cell lines to eight of the nine peptides tested. These eight lines were tested for specificity after four in vitro restimulations (Table II). All responded to the immunising peptide and, to some extent, to hsp65.
T cell responses by immunisation with hsp65 peptides. Rats were immunised with synthetic peptides containing individual hsp65 epitopes (100 µg peptide/DDA per rat). Ten days later PLNC were isolated and tested for responses to overlapping peptides (20 µg/ml). Peptide-specific T cell lines were generated by bulk in vitro stimulation of PLNC with immunising peptide. Lines were tested for responses to overlapping peptides (10 µg/ml). […] Results are expressed as mean cpm of triplicate cultures. All SEM were less than 20%.

hsp65-PLNC = experiment: T cell proliferation assay, hsp65-PLNC; assay type: cell-based, Lewis rats; conditions: PLNC from hsp65-immunised rats; peptides 5 and 20 µg/ml
Method: Immunisations and primed lymph node populations: Rats were immunised with either Mt or hsp65. Mt was suspended at 5 mg/ml in IFA or DDA and 100 µl injected in each hind footpad (i.e. 500 µg/footpad, 1 mg/rat). Hsp65 (1 mg/ml in PBS) was mixed 1:1 with DDA and 100 µl injected (i.e. 50 µg/footpad, 100 µg/rat). Ten to 21 days later, draining popliteal lymph nodes were removed, disaggregated, washed three times and used as a source of primed lymph node cells (PLNC). In control experiments splenocytes and lymph nodes from unimmunised rats and PLNC from rats immunised with IFA or DDA/PBS alone were used.
as §1
Hsp65-PLNC were analysed for responsiveness to a panel of peptides covering the entire sequence of hsp65 (Fig. 3a). […] In terms of magnitude of response, three regions of the molecule (residues 176-190, 211-230 and 221-240) appeared to contain the "dominant" T cell epitopes, while regions 86-100. 251-270, 396-410 and 506-525 contained "subdominant" or minor epitopes.

adjuvant arthritis = experiment: Adjuvant arthritis (AA) induced with Mt in IFA, clinical arthritis score; assay type: in vivo, Lewis rats; conditions: 100 µg peptide in DDA, hind footpads, 7 days prior to AA induction with Mt
Method: Induction and clinical assessment of experimental arthritis: Arthritis was induced by a single intradermal injection in the base of the tail. AA was induced with 0.5 mg Mt suspended in 100 µl IFA. CP20961 arthritis was induced with 2 mg CP20961 in 100 µl light mineral oil (Sigma). Rats were examined daily for clinical signs of arthritis. Severity of arthritis was assessed by scoring each paw from zero to four based on degree of swelling, erythema and deformity of the joints. Thus the maximum possible arthritis score was 16.
Modulation of arthritis with hsp65 peptides and epitope-specific T cell lines: Synthetic peptides corresponding to eight T cell epitopes present in mycobacterial hsp65 were tested for protective effects on arthritis development. Rats were immunised with 100 µg of individual peptide seven days prior to arthritis induction. Peptides were immunised in each hind footpad in 10 mg/ml DDA (50 µl/pad). Control rats received only PBS/DDA. Epitope-specific T cell lines were also tested for protective activity by intravenous administration of lines at the time of arthritis induction. T cell lines were restimulated in vitro with irradiated spleen APC and specific peptide. Four days later T cell blasts were harvested by ficoll gradient, washed and applied to a second ficoll gradient to remove any contaminating APC. T cells were washed twice in wash medium and twice in PBS and finally suspended at 2.5x10^7/ml in PBS. Immediately prior to injection of Mt, 200 µl (i.e. 5x10^6) T cells were injected i.v. in the tail vein.
The effects of preimmunisation with synthetic peptides containing individual epitopes on the development of AA were analysed (Fig. 7). The eight peptides which primed for epitope specific T cells were tested. Rats were immunised with 100 µg of peptide 7 days prior to AA-induction with Mt.

RT1.B^1 molecules = experiment: Inhibition of proliferation of T cell lines with other Ag specificities (MHC affinity, preliminary); assay type: cell-based, Lewis rats; conditions: preliminary experiments, data not shown
Method: The relatively low quantities of hsp65 present in the Mt preparation might result in focusing of T cell responses on hsp65 epitopes with higher affinities for MHC class II molecules. […] Thus, when Ag concentrations are limited (i.e. following Mt immunisation) dominance of T cell epitopes might be more dependent on their relative MHC binding affinities, whereas following immunisation with large quantities of specific antigen (50-100 µg hsp65 per rat) relative dominance might not be simply a function of affinity for MHC. Clearly, antigen processing of the intact hsp65 molecule will determine the peptide fragments generated during in vivo priming, and the naturally processed fragments will not be identical to the synthetic 15mers used in this study. Also the molecular context of hsp65 (i.e recombinant monomeric hsp65, or the multimeric native protein in the Mt preparation) could affect antigen processing and influence the pattern of epitope recognition.

## peptide 176-190: synthetic 15mer of mycobacterial hsp65 containing the AA-associated epitope 180-188
[1]
  CPM T Cell Line: 31400 cpm
hsp65-PLNC
  hsp65-PLNC proliferative response to peptide: dominant
Adjuvant arthritis
  protection against AA development after peptide preimmunisation: no effect on AA onset
RT1.B^1 molecules
  affinity for RT1.B^1 molecules relative to peptides 211-225 or 226-240: higher affinity
